# Values quoted from earlier work, collected in patent US20230348531A1, “ISOLATION AND PURIFICATION OF BACTERIOCIN PRODUCED BY LACTOBACILLUS SAKEI AND ANTIBACTERIAL USE THEREOF AND LACTIC ACID BACTERIA USED” (Zhejiang Gongshang University, priority 2022, published 2023).
# Test system: gram-negative bacteria such as Escherichia coli
# Conditions: background statement
substance,measurement,value
Nisin,inhibitory effect on gram-negative bacteria,no inhibitory effect
